In general, inhibition refers to how much of the control response was suppressed.

This assay has as its target T1, human full-length recombinant PKC βII (Homo sapiens, UniProt P05771).
T1 construct: Active human full-length recombinant PKC βII; purchased Invitrogen GmbH, Darmstadt, Germany
In words: Determination of PKC βII inhibition (Caliper mobility-shift kinase assay, Fluorescein-RFARKGSLRQKNV peptide substrate). Conditions: example compounds at a final concentration of 1.14 μM (±0.15 μM). Type of assay: biochemical. An outline of the steps: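 Full-length PKC βII (30 ng/ml in pre-dilution) with PS/DAG/Ca2+ activators, pH 7.4; fluorescein peptide and ATP at 3 μM and 120 μM before mixing. Reaction ran 60 min at 32 °C, was EDTA-stopped, and was read by mobility shift. % inhibition came from product/(substrate+product) peak heights, tested at 1.14 μM final.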

T1 sequence (P05771 1-673 isoform P05771-2): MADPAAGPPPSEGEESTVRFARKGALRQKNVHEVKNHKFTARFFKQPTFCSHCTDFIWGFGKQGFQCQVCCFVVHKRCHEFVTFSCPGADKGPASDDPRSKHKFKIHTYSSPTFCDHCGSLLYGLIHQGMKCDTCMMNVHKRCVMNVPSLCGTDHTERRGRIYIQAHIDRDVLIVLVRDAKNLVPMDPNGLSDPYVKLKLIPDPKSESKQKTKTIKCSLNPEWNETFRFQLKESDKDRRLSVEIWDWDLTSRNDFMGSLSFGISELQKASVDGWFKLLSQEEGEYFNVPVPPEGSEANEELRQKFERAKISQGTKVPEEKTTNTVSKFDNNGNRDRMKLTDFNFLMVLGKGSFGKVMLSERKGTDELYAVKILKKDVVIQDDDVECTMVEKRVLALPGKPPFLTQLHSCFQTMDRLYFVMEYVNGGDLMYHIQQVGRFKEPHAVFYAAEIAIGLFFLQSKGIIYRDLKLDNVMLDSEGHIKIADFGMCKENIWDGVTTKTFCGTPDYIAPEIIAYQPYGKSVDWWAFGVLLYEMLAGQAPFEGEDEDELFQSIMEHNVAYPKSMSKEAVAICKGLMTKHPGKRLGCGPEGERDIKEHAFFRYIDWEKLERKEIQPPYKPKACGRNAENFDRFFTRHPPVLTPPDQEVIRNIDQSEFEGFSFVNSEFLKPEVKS

As to `Cc1n[nH]c2nc(-c3ccc(O)cc3)cc(C(=O)N3CC4(CCNCC4)C3)c12` [Example 234, (2,7-Diaza-spiro[3.5]non-2-yl)-[6-(4-hydroxy-phenyl)-3-methyl-1H-pyrazolo[3,4-b]pyridin-4-yl]-methanone], the inhibition at 1.14 µM was found to be 94%.

`Cc1n[nH]c2nc(-c3ccc(O)cc3)cc(C(=O)N3CCC4(CCCNC4)C3)c12` (stereo not drawn) [Example 235, (2,7-Diaza-spiro[4.5]dec-2-yl)-[6-(4-hydroxy-phenyl)-3-methyl-1H-pyrazolo[3,4-b]pyridin-4-yl]-methanone]: the inhibition at 1.14 µM came to 89%.

As for `Cc1n[nH]c2nc(-c3ccc(O)cc3)cc(C(=O)N3CCC4(CCNCC4)CC3)c12` [Example 236, (3,9-Diaza-spiro[5.5]undec-3-yl)-[6-(4-hydroxy-phenyl)-3-methyl-1H-pyrazolo[3,4-b]pyridin-4-yl]-methanone], the inhibition at 1.14 µM was found to be 84%.

In the case of `Cc1n[nH]c2nc(-c3ccc(O)cc3)cc(C(=O)N3CC4(CCNCC4)c4ccccc43)c12` [Example 237], the inhibition at 1.14 µM worked out at 59%.

Take `Cc1n[nH]c2nc(-c3ccc(O)cc3)cc(C(=O)N3CC[C@@H](N(C)C)C3)c12` [Example 238, ((R)-3-Dimethylamino-pyrrolidin-1-yl)-[6-(4-hydroxy-phenyl)-3-methyl-1H-pyrazolo[3,4-b]pyridin-4-yl]-methanone]: the inhibition at 1.14 µM came to 77%.

Turning to `Cc1n[nH]c2nc(-c3ccc(O)cc3)cc(C(=O)N3CC[C@H](N(C)C)C3)c12` [Example 239, ((S)-3-Dimethylamino-pyrrolidin-1-yl)-[6-(4-hydroxy-phenyl)-3-methyl-1H-pyrazolo[3,4-b]pyridin-4-yl]-methanone], the inhibition at 1.14 µM is 78%.

On to `CNC1CCN(C(=O)c2cc(-c3ccc(O)cc3)nc3[nH]nc(C)c23)C1` (stereo not drawn) [Example 240, [6-(4-Hydroxy-phenyl)-3-methyl-1H-pyrazolo[3,4-b]pyridin-4-yl]-(3-methylamino-pyrrolidin-1-yl)-methanone], for which the inhibition at 1.14 µM turned out to be 94%.

On to `Cc1n[nH]c2nc(-c3ccc(O)cc3)cc(C(=O)N(C)C3CCNCC3)c12` [Example 241, 6-(4-Hydroxy-phenyl)-3-methyl-1H-pyrazolo[3,4-b]pyridine-4-carboxylic acid methyl-piperidin-4-yl-amide], for which the inhibition at 1.14 µM came to 88%.

For `Cc1n[nH]c2nc(-c3ccc(O)cc3)cc(C(=O)NC3CCCNC3)c12` (stereo not drawn) [Example 242, 6-(4-Hydroxy-phenyl)-3-methyl-1H-pyrazolo[3,4-b]pyridine-4-carboxylic acid piperidin-3-ylamide], the inhibition at 1.14 µM came to 87%.

For `Cc1n[nH]c2nc(-c3ccc(O)cc3)cc(C(=O)NCC3CCCNC3)c12` (stereo not drawn) [Example 243, 6-(4-Hydroxy-phenyl)-3-methyl-1H-pyrazolo[3,4-b]pyridine-4-carboxylic acid (piperidin-3-ylmethyl)-amide], the inhibition at 1.14 µM stood at 78%.

As for `CNCCCNC(=O)c1cc(-c2ccc(O)cc2)nc2[nH]nc(C)c12` [Example 244, 6-(4-Hydroxy-phenyl)-3-methyl-1H-pyrazolo[3,4-b]pyridine-4-carboxylic acid (3-methylamino-propyl)-amide], the inhibition at 1.14 µM worked out at 76%.

On to `Cc1n[nH]c2nc(-c3ccc(O)cc3)cc(C(=O)NCC3CCCCN3)c12` (stereo not drawn) [Example 245, 6-(4-Hydroxy-phenyl)-3-methyl-1H-pyrazolo[3,4-b]pyridine-4-carboxylic acid (piperidin-2-ylmethyl)-amide], for which the inhibition at 1.14 µM is 83%.

Regarding `Cc1n[nH]c2nc(-c3ccc(O)cc3)cc(C(=O)N3CC[C@H](N)C3)c12` [Example 246, ((S)-3-Amino-pyrrolidin-1-yl)-[6-(4-hydroxy-phenyl)-3-methyl-1H-pyrazolo[3,4-b]pyridin-4-yl]-methanone], the inhibition at 1.14 µM is 88%.

On to `Cc1n[nH]c2nc(-c3ccc(O)cc3)cc(C(=O)N3CC(N)C3)c12` [Example 247, (3-Amino-azetidin-1-yl)-[6-(4-hydroxy-phenyl)-3-methyl-1H-pyrazolo[3,4-b]pyridin-4-yl]-methanone], for which the inhibition at 1.14 µM turned out to be 69%.

With `Cc1n[nH]c2nc(-c3ccc(O)cc3)cc(C(=O)NC3CNC3)c12` [Example 248, 6-(4-Hydroxy-phenyl)-3-methyl-1H-pyrazolo[3,4-b]pyridine-4-carboxylic acid azetidin-3-ylamide], the inhibition at 1.14 µM is 83%.

As for `Cc1n[nH]c2nc(-c3ccc(O)cc3)cc(C(=O)N3CCC(N)CC3)c12` [Example 249, (4-Amino-piperidin-1-yl)-[6-(4-hydroxy-phenyl)-3-methyl-1H-pyrazolo[3,4-b]pyridin-4-yl]-methanone], the inhibition at 1.14 µM amounted to 82%.

Regarding `Cc1n[nH]c2nc(-c3ccc(O)cc3)cc(C(=O)N3C[C@H]4CNC[C@H]4C3)c12` [Example 250, (3aR,6aS)-Hexahydro-pyrrolo[3,4-c]pyrrol-2-yl-[6-(4-hydroxy-phenyl)-3-methyl-1H-pyrazolo[3,4-b]pyridin-4-yl]-methanone], the inhibition at 1.14 µM was determined as 85%.

On to `Cc1n[nH]c2nc(-c3ccc(O)cc3)cc(C(=O)N[C@H]3C[C@H](N)C3)c12` [Example 252, 6-(4-Hydroxy-phenyl)-3-methyl-1H-pyrazolo[3,4-b]pyridine-4-carboxylic acid (trans-3-amino-cyclobutyl)-amide], for which the inhibition at 1.14 µM came to 72%.

For `Cc1n[nH]c2nc(-c3ccc(O)cc3)cc(C(=O)N3CCC4(CNCCO4)C3)c12` (stereo not drawn) [Example 253, [6-(4-Hydroxy-phenyl)-3-methyl-1H-pyrazolo[3,4-b]pyridin-4-yl]-(6-oxa-2,9-diaza-spiro[4.5]dec-2-yl)-methanone], the inhibition at 1.14 µM was 73%.

With `Cc1n[nH]c2nc(-c3ccc(O)cc3)cc(C(=O)NC3CCCC(N)C3)c12` (stereo not drawn) [Example 254, 6-(4-Hydroxy-phenyl)-3-methyl-1H-pyrazolo[3,4-b]pyridine-4-carboxylic acid (3-amino-cyclohexyl)-amide], the inhibition at 1.14 µM was found to be 80%.

Regarding `Cc1n[nH]c2nc(-c3ccc(O)cc3)cc(C(=O)N3CCC4(CC3)CNC4)c12` [Example 255, (2,7-Diaza-spiro[3.5]non-7-yl)-[6-(4-hydroxy-phenyl)-3-methyl-1H-pyrazolo[3,4-b]pyridin-4-yl]-methanone], the inhibition at 1.14 µM is 90%.

For the compound `Cc1n[nH]c2nc(-c3ccc(O)cc3)cc(C(=O)N3CCC4(CCNC4)C3)c12` (stereo not drawn) [Example 256, (2,7-Diaza-spiro[4.4]non-2-yl)-[6-(4-hydroxy-phenyl)-3-methyl-1H-pyrazolo[3,4-b]pyridin-4-yl]-methanone], the inhibition at 1.14 µM is 86%.

In the case of `Cc1n[nH]c2nc(-c3ccc(O)cc3)cc(C(=O)N3CCC4(CCNC4)CC3)c12` [Example 257, (2,8-Diaza-spiro[4.5]dec-8-yl)-[6-(4-hydroxy-phenyl)-3-methyl-1H-pyrazolo[3,4-b]pyridin-4-yl]-methanone], the inhibition at 1.14 µM worked out at 82%.

In the case of `Cc1n[nH]c2nc(-c3ccc(O)cc3)cc(C(=O)N3CCOC4(CCCNC4)C3)c12` (stereo not drawn) [Example 258, [6-(4-Hydroxy-phenyl)-3-methyl-1H-pyrazolo[3,4-b]pyridin-4-yl]-(1-oxa-4,8-diaza-spiro[5.5]undec-4-yl)-methanone], the inhibition at 1.14 µM was 78%.

Take `Cc1n[nH]c2nc(-c3ccc(O)cc3)cc(C(=O)N3CCC4(CC3)CNCCO4)c12` [Example 259, [6-(4-Hydroxy-phenyl)-3-methyl-1H-pyrazolo[3,4-b]pyridin-4-yl]-(1-oxa-4,9-diaza-spiro[5.5]undec-9-yl)-methanone]: the inhibition at 1.14 µM was 29%.

For `Cc1n[nH]c2nc(-c3ccc(O)cc3)cc(C(=O)N3CCC4(CCNCC4)C3)c12` [Example 260, (2,8-Diaza-spiro[4.5]dec-2-yl)-[6-(4-hydroxy-phenyl)-3-methyl-1H-pyrazolo[3,4-b]pyridin-4-yl]-methanone], the inhibition at 1.14 µM was determined as 78%.

For `Cc1n[nH]c2nc(-c3ccc(O)cc3)cc(C(=O)N3CCOC4(CCNCC4)C3)c12` [Example 261, [6-(4-Hydroxy-phenyl)-3-methyl-1H-pyrazolo[3,4-b]pyridin-4-yl]-(1-oxa-4,9-diaza-spiro[5.5]undec-4-yl)-methanone], the inhibition at 1.14 µM was found to be 70%.

As to `Cc1n[nH]c2nc(-c3ccc(O)cc3)cc(C(=O)N3CCCC4(CNCCO4)C3)c12` (stereo not drawn) [Example 262, [6-(4-Hydroxy-phenyl)-3-methyl-1H-pyrazolo[3,4-b]pyridin-4-yl]-(1-oxa-4,8-diaza-spiro[5.5]undec-8-yl)-methanone], the inhibition at 1.14 µM stood at 59%.

In the case of `Cc1n[nH]c2nc(-c3ccc(O)cc3)cc(C(=O)N3CCCC4(CCNC4)C3)c12` (stereo not drawn) [Example 263, (2,7-Diaza-spiro[4.5]dec-7-yl)-[6-(4-hydroxy-phenyl)-3-methyl-1H-pyrazolo[3,4-b]pyridin-4-yl]-methanone], the inhibition at 1.14 µM came out at 65%.

Take `Cc1n[nH]c2nc(-c3ccc(O)cc3)cc(C(=O)N3CCC(N)C3)c12` (stereo not drawn) [Example 264, (3-Amino-pyrrolidin-1-yl)-[6-(4-hydroxy-phenyl)-3-methyl-1H-pyrazolo[3,4-b]pyridin-4-yl]-methanone]: the inhibition at 1.14 µM is 88%.

With `CC(=O)N1CCN(C(=O)c2cc(-c3ccc(O)cc3)nc3[nH]nc(C)c23)CC1` [Example 265, 1-{4-[6-(4-Hydroxy-phenyl)-3-methyl-1H-pyrazolo[3,4-b]pyridine-4-carbonyl]-piperazin-1-yl}-ethanone], the inhibition at 1.14 µM worked out at 87%.

Consider `Cc1n[nH]c2nc(-c3ccc(O)cc3)cc(C(=O)N3CC(=O)N4CCCCC4C3)c12` (stereo not drawn) [Example 266, 2-[6-(4-Hydroxy-phenyl)-3-methyl-1H-pyrazolo[3,4-b]pyridine-4-carbonyl]-octahydro-pyrido[1,2-a]pyrazin-4-one], for which the inhibition at 1.14 µM stood at 39%.

Turning to `Cc1ccc(C(=O)N2CCN(C(=O)c3cc(-c4ccc(O)cc4)nc4[nH]nc(C)c34)CC2)cc1` [Example 267, [6-(4-Hydroxy-phenyl)-3-methyl-1H-pyrazolo[3,4-b]pyridin-4-yl]-[4-(4-methyl-benzoyl)-piperazin-1-yl]-methanone], the inhibition at 1.14 µM was found to be 32%.
